Source: ChEMBL document CHEMBL4359820, “Enrichment of novel quinazoline derivatives with high antitumor activity in mitochondria tracked by its self-fluorescence” (Eur J Med Chem, 2019)
Active and inactive are the calls of the source. The calls are words filed in the database; no cut-off is given here.

Key:
NCI-H1975 = type: functional, cell-based; conditions: Homo sapiens, NCI-H1975, 72 h
SW480 = type: functional, cell-based; conditions: Homo sapiens, SW480, 72 h
A549 [1] = type: functional, cell-based; conditions: Homo sapiens, A549, 72 h
A-431 = assay: cells; conditions: Homo sapiens, A-431, 72 h
Description: Antiproliferative activity against human A431 cells incubated for 72 hrs by MTT assay

[2] = molecular target: Epidermal growth factor receptor (Homo sapiens) (UniProt P00533); assay: Inhibition of EGF-induced EGFR phosphorylation at Tyr-residue in human A549 cells at 0.4 to 10 uM preincubated for 2 hrs followed by EGF treatment and measured after 10 mins by Western blot analysis; type: cell-based
Chain of Epidermal growth factor receptor (Homo sapiens) (P00533 whole entry): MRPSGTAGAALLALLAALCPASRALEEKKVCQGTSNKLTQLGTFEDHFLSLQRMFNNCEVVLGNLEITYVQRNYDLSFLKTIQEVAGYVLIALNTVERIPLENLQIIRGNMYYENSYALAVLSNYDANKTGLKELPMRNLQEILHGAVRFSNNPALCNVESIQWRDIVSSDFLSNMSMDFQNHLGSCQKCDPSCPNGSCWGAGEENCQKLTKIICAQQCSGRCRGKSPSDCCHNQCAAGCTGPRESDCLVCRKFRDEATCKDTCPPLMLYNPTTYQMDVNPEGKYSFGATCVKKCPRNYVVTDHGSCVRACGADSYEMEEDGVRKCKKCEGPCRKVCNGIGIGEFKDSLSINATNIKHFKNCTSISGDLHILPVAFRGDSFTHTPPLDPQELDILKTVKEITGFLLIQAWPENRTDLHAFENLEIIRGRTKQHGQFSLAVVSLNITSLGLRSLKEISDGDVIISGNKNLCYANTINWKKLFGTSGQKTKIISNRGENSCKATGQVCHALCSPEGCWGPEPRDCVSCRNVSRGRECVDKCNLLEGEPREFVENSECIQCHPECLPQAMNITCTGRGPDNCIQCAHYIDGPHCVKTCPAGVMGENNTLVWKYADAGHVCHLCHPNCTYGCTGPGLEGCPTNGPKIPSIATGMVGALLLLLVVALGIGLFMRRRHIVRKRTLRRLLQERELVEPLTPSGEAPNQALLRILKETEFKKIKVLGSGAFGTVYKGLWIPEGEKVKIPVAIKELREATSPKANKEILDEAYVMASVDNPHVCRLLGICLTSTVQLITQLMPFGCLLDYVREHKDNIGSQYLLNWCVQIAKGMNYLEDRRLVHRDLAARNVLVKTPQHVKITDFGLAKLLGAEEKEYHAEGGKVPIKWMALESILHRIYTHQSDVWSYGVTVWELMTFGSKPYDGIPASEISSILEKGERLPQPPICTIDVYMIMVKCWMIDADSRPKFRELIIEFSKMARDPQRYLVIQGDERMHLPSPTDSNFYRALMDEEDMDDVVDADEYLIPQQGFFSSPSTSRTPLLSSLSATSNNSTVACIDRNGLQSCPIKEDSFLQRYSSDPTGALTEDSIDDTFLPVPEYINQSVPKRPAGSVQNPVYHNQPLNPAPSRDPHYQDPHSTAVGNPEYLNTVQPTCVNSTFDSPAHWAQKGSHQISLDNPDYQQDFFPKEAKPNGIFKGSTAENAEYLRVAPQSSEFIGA

[3] = molecular target: Epidermal growth factor receptor (Homo sapiens) (UniProt P00533); assay: Inhibition of EGF-induced EGFR phosphorylation at Y1068 in human A549 cells at 0.4 to 10 uM preincubated for 2 hrs followed by EGF treatment and measured after 10 mins by Western blot analysis; type: cell-based
[4] = molecular target: Epidermal growth factor receptor (Homo sapiens) (UniProt P00533); assay: Inhibition of EGF-induced EGFR phosphorylation at Y992 in human A549 cells at 0.4 to 10 uM preincubated for 2 hrs followed by EGF treatment and measured after 10 mins by Western blot analysis; type: cell-based
[5] = molecular target: Epidermal growth factor receptor (Homo sapiens) (UniProt P00533); assay: Inhibition of EGF-induced EGFR phosphorylation at Tyr-residue in human A431 cells at 0.2 to 5 uM preincubated for 2 hrs followed by EGF treatment and measured after 10 mins by Western blot analysis; type: cell-based
[6] = molecular target: Epidermal growth factor receptor (Homo sapiens) (UniProt P00533); assay: Inhibition of EGF-induced EGFR phosphorylation at Y1068 in human A431 cells at 0.2 to 5 uM preincubated for 2 hrs followed by EGF treatment and measured after 10 mins by Western blot analysis; type: cell-based
[7] = molecular target: Epidermal growth factor receptor (Homo sapiens) (UniProt P00533); assay: Inhibition of EGF-induced EGFR phosphorylation at Y992 in human A431 cells at 0.2 to 5 uM preincubated for 2 hrs followed by EGF treatment and measured after 10 mins by Western blot analysis; type: cell-based
[8] = Drug uptake in human A549 cells at 5 uM incubated for 2 hrs by fluorescence microscopic method; type: ADME, cell-based; conditions: a549, 2 h
[9] = Drug localization in mitochondria of human A549 cells at 5 uM incubated for 30 mins by Mitotracker red staining based confocal microscopic method; type: ADME; conditions: a549, 0.5 h
[10] = Drug localization in mitochondria of human A549 cells at 5 uM incubated for 30 mins by Mitotracker green staining based confocal microscopic method; type: ADME; conditions: a549, 0.5 h
[11] = Drug localization in lysosome of human A549 cells at 5 uM incubated for 30 mins by Lysotracker red staining based confocal microscopic method; type: ADME, subcellular; conditions: a549, 0.5 h
[12] = Drug uptake in human A549 cells incubated for 2 hrs by FACS analysis; type: ADME, cell-based; conditions: a549, 2 h
[13] = Drug uptake in human A549 cells at 1 uM incubated for 2 hrs by FACS analysis (reference value: 0%); type: ADME, cell-based; conditions: a549, 2 h
[14] = Drug uptake in human A549 cells at 5 uM incubated for 2 hrs by FACS analysis (reference value: 0%); type: ADME, cell-based; conditions: a549, 2 h
[15] = Drug uptake in human A549 cells at 25 uM incubated for 2 hrs by FACS analysis (reference value: 0%); type: ADME, cell-based; conditions: a549, 2 h
[16] = molecular target: Epidermal growth factor receptor (Homo sapiens) (UniProt P00533); conditions: HEK293, at 50 nM
Description: Inhibition of human recombinant His-tagged wild type EGFR expressed in HEK293 cells at 50 nM using poly[Glu:Tyr] (4:1) as substrate incubated for 60 mins by ELISA relative to control

HCC827 = type: functional, cell-based; conditions: Homo sapiens, HCC827, 72 h
A549 [17] = assay: Inhibition of cell migration in CM-dil-labelled human A549 cells xenografted in 48 hrs post-fertilization zebrafish embryos at 15 uM incubated for 48 hrs by confocal microscopic method; type: functional, cell-based
A549 [18] = assay: Induction of cell cycle arrest in human A549 cells assessed as accumulation at G0/G1 phase at 15 uM incubated for 48 hrs by PI staining based flow cytometric analysis (reference value: 51.73%); type: functional
A549 [19] = assay: Induction of cell cycle arrest in human A549 cells assessed as accumulation at S phase at 15 uM incubated for 48 hrs by PI staining based flow cytometric analysis (reference value: 33.67%); type: functional
A549 [20] = assay: Induction of cell cycle arrest in human A549 cells assessed as accumulation at G2/M phase at 15 uM incubated for 48 hrs by PI staining based flow cytometric analysis (reference value: 14.36%); type: functional
A549 [21] = assay: Induction of apoptosis in human A549 cells assessed as viable cells at 20 uM incubated for 48 hrs by annexin V -FITC and PI staining based flow cytometric analysis (reference value: 94.56%); type: functional; conditions: A549, 48 h, read-out: Activity
A549 [22] = assay: Induction of apoptosis in human A549 cells assessed as early apoptotic cells at 20 uM incubated for 48 hrs by annexin V -FITC and PI staining based flow cytometric analysis (reference value: 2.93%); type: functional
A549 [23] = assay: Induction of apoptosis in human A549 cells assessed as late apoptotic cells at 20 uM incubated for 48 hrs by annexin V -FITC and PI staining based flow cytometric analysis (reference value: 2.24%); type: functional
A549 [24] = assay: Induction of apoptosis in human A549 cells assessed as necrotic cells at 20 uM incubated for 48 hrs by annexin V -FITC and PI staining based flow cytometric analysis (reference value: 0.27%); type: functional
A549 [25] = assay: Induction of cell cycle arrest in human A549 cells assessed as accumulation at G0/G1 phase at 20 uM incubated for 48 hrs by PI staining based flow cytometric analysis (reference value: 51.73%); type: functional
A549 [26] = assay: Induction of cell cycle arrest in human A549 cells assessed as accumulation at S phase at 20 uM incubated for 48 hrs by PI staining based flow cytometric analysis (reference value: 33.67%); type: functional
A549 [27] = assay: Induction of cell cycle arrest in human A549 cells assessed as accumulation at G2/M phase at 20 uM incubated for 48 hrs by PI staining based flow cytometric analysis (reference value: 14.36%); type: functional

Compound | IC50 (NCI-H1975) | IC50 (SW480) | IC50 (A549 [1]) | IC50 (A-431) | inhibition [16] | other results
Fc1ccc(Nc2ncnc3cc(N4CCOCC4)c(F)cc23)cc1Cl | > 100 µM | > 100 µM | > 100 µM | 85.6 µM |  | 
Fc1cccc(COc2ccc(Nc3ncnc4cc(N5CCNCC5)c(F)cc34)cc2Cl)c1 |  |  |  |  | < 20% | inhibition [2]: inactive; inhibition [3]: inactive; inhibition [4]: inactive; inhibition [5]: inactive; inhibition [6]: inactive; inhibition [7]: inactive; Drug uptake [8]: Active; Drug uptake [9]: Active; Drug uptake [10]: Active; Drug uptake [11]: Active; Drug uptake [12]: Dose-dependent effect; Drug uptake [13]: 74.03%; Drug uptake [14]: 99.95%; Drug uptake [15]: 100%
CS(=O)(=O)CCNCc1ccc(-c2ccc3ncnc(Nc4ccc(OCc5cccc(F)c5)c(Cl)c4)c3c2)o1 [LAPATINIB] |  |  | 14.9 µM |  |  | IC50 (HCC827): 0.6 µM; inhibition (A549 [17]): Active; Activity (A549 [18]): 69.72%; Activity (A549 [19]): 22.35%; Activity (A549 [20]): 7.66%
C/C=C/c1ccc(Nc2ncnc3cc(N4CCOCC4)c(F)cc23)cc1 | > 100 µM | > 100 µM | > 100 µM | 64 µM |  | 
COCCN1CCN(c2cc3ncnc(Nc4ccc(OCc5cccc(F)c5)c(Cl)c4)c3cc2F)CC1 | > 100 µM | > 100 µM | > 100 µM | > 100 µM |  | 
Fc1cccc(COc2ccc(Nc3ncnc4cc(N5CCOCC5)c(F)cc34)cc2Cl)c1 | 52.6 µM | 57.5 µM | 71.8 µM | 10.1 µM |  | 
C/C=C/c1ccc(Nc2ncnc3cc(N4CCNCC4)c(F)cc23)cc1 |  |  |  |  | < 20% | 
COc1cc2ncnc(Nc3ccc(F)c(Cl)c3)c2cc1OCCCN1CCOCC1 [GEFITINIB] |  |  |  |  |  | viability at 20 µM (A549 [21]): 83.3%; Activity (A549 [22]): 7.93%; Activity (A549 [23]): 7.86%; Activity (A549 [24]): 0.95%; Activity (A549 [25]): 76.94%; Activity (A549 [26]): 16.98%; Activity (A549 [27]): 5.95%
C#Cc1cccc(Nc2ncnc3cc(N4CCNCC4)c(F)cc23)c1 |  |  |  |  | < 20% | 
Fc1ccc(Nc2ncnc3cc(N4CCNCC4)c(F)cc23)cc1Cl |  |  |  |  | < 20% | 

Second part, led by results:

IC50 (NCI-H1975) | IC50 (SW480) | IC50 (A549 [1]) | IC50 (A-431) | inhibition [16] | Compound | other results
> 100 µM | > 100 µM | > 100 µM | > 100 µM |  | C#Cc1cccc(Nc2ncnc3cc(N4CCOCC4)c(F)cc23)c1 | 
> 100 µM | > 100 µM | > 100 µM | 49.2 µM |  | C/C=C/c1ccc(Nc2ncnc3cc(N4CCN(CCOC)CC4)c(F)cc23)cc1 | 
 |  |  |  | > 20% | CCN(CC)CCN1CCN(c2cc3ncnc(Nc4ccc(OCc5cccc(F)c5)c(Cl)c4)c3cc2F)CC1 | 
49.8 µM | 16.4 µM | 14.4 µM | 12.6 µM |  | COCCN1CCN(c2cc3ncnc(Nc4ccc(F)c(Cl)c4)c3cc2F)CC1 | 
68.1 µM | 19 µM | 19.2 µM | 12.8 µM |  | C#Cc1cccc(Nc2ncnc3cc(N4CCN(CCOC)CC4)c(F)cc23)c1 | 
 |  |  |  | < 20% | C/C=C/c1ccc(Nc2ncnc3cc(N4CCN(CCN(CC)CC)CC4)c(F)cc23)cc1 | 
 |  |  |  | < 20% | C#Cc1cccc(Nc2ncnc3cc(N4CCN(CCN(CC)CC)CC4)c(F)cc23)c1 | 
 |  |  |  | < 20% | CCN(CC)CCN1CCN(c2cc3ncnc(Nc4ccc(F)c(Cl)c4)c3cc2F)CC1 | 
